Patent US10576062B2, “Carbamoyloxymethyl triazole cyclohexyl acids as LPA antagonists” (Bristol-Myers Squibb Company, priority 2016, dated 2020)

Key:
CD-1 female mice = test: LPA challenge with plasma histamine evaluation (acute in vivo histamine assay); design: species or system mouse; conditions: 3 mg/kg dose; for histamine (change of plasma histamine after LPA challenge): CD-1 mice, p.o. 2 hours prior to LPA challenge
Method: LPA Challenge with Plasma Histamine Evaluation.
Compound is dosed orally p.o. 2 hours to CD-1 female mice prior to the LPA challenge. The mice are then dosed via tail vein (IV) with 0.15 mL of LPA in 0.1% BSA/PBS ([…]). Exactly 2 minutes following the LPA challenge, the mice are euthanized by decapitation and the trunk blood is collected. These samples are collectively centrifuged and individual 75 μL samples are frozen at −20° C. until the time of the histamine assay.
The plasma histamine analysis was run by standard EIA (Enzyme Immunoassay) methods. Plasma samples were thawed and diluted 1:30 in 0.1% BSA in PBS. The EIA protocol for histamine analysis as outlined by the manufacturer was followed (Histamine EIA, Oxford Biomedical Research, EA #31).
The LPA used in the assay is formulated as follows: LPA (1-oleoyl-2-hydroxy-sn-glycero-3-phosphate (sodium salt), 857130P, Avanti Polar Lipids) is prepared in 0.1% BSA/PBS for total concentration of 2 μg/μL. 13 mg of LPA is weighed and 6.5 mL 0.1% BSA added, vortexed and sonicated for ˜1 hour until a clear solution is achieved.

human LPA1 = target: T1, human LPA1 (Homo sapiens, UniProt Q92633); test: LPA1 functional antagonist assay (LPA-induced calcium flux); assay type: cell-based; conditions: read-out: hLPA1 IC50
T1 construct: expressed in transfected cells; host or cells: Chinese hamster ovary (CHO) cells
Outline: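 CHO cells overexpressing human LPA1, loaded with calcium dye 30 min at 37° C, were preincubated 20 min at room temperature with compound (0.08 nM–5 μM, 0.5% DMSO) in HBSS/20 mM HEPES/0.1% fatty acid-free BSA.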

nerve-injured mice = conditions: pretreatment; cited from earlier work
[1] = tested on: mouse epithelial renal cell line, MCT; conditions: MCT cells, co-treatment with LPA; cited from earlier work
[2] = tested on: pancreatic cancer cell lines; conditions: cited from earlier work
[3] = tested on: human foetal lung fibroblasts; conditions: cited from earlier work
UUO mice = UUO mice treated with the antagonist; cited from earlier work

T1 sequence (Q92633 whole entry): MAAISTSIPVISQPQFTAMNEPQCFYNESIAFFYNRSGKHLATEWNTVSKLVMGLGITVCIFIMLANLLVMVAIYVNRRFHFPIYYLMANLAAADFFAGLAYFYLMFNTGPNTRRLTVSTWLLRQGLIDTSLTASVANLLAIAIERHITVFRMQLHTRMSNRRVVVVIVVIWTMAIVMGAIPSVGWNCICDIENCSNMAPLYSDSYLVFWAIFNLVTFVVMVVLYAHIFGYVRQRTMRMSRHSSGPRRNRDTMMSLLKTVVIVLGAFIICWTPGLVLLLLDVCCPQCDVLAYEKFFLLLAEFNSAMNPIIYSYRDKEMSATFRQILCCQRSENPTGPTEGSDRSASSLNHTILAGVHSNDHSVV

Structure (SMILES): Cc1nc(-c2nnn(C)c2COC(=O)N(C)C2CCCC2)ccc1O[C@H]1CCC[C@H](C(=O)O)C1 [Example 1, (1S,3S)-3-((6-(5-(((cyclopentyl(methyl)carbamoyl)oxy)methyl)-1-methyl-1H-1,2,3-triazol-4-yl)-2-methylpyridin-3-yl)oxy)cyclohexane-1-carboxylic Acid]
- histamine (change of plasma histamine after LPA challenge) (CD-1 female mice): −97%

Structure (SMILES): CN(C(=O)OCc1c(-c2ccc(O[C@H]3CCC[C@H](C(=O)O)C3)cc2)nnn1C)C1CCCC1 [Example 5, (1S,3S)-3-(4-(5-(((Cyclopentyl(methyl)carbamoyl)oxy)methyl)-1-methyl-1H-1,2,3-triazol-4-yl)phenoxy)cyclohexanecarboxylic acid]
- histamine (change of plasma histamine after LPA challenge) (CD-1 female mice): −90%

Structure (SMILES): C[C@H](C1CC1)N(C)C(=O)OCc1c(-c2ccc(O[C@H]3CCC[C@H](C(=O)O)C3)cc2)nnn1C [Example 51, (1S,3S)-3-(4-(5-(((((R)-1-cyclopropylethyl)(methyl)carbamoyl)oxy)methyl)-1-methyl-1H-1,2,3-triazol-4-yl)phenoxy)cyclohexane-1-carboxylic acid]
- In vivo acute histamine assay: % histamine (CD-1 female mice): −73%
- IC50 (human LPA1): 24 nM

Structure (SMILES): C[C@@H](N)[C@H]1CC[C@H](C(=O)Nc2ccncc2)CC1 [Example Y-27632]
- allodynia and hyperalgesia (nerve-injured mice): completely abolished

Structure (SMILES): Cc1noc(-c2ccc(CSCCC(=O)O)cc2)c1NC(=O)OC(C)c1ccccc1Cl (stereo not shown) [Ki16425]
- LPA-induced increase in expression of CTGF [1]: almost completely suppressed
- LPA-induced and ascites-induced invasion activity ([2]; highly peritoneal metastatic pancreatic cancer cell line): blocked
- in vitro migration in response to LPA and peritoneal fluid (ascites) from pancreatic cancer patients ([2]; pancreatic cancer cell lines): effectively blocked
- chemotaxis of human foetal lung fibroblasts induced by BAL from IPF patients [3]: blocked
- development of renal fibrosis in UUO mice (UUO mice): closely resembled the profile of LPA1 (−/−) mice
